Read-outs that look alike come from different tables or passages of the source.
Columns and labels:
[1] = Dissolution rate: time to visually complete dissolution in purified water; format: physicochemical
Procedure: 100 mg of Ge-132 and 100 mg of the THGP octamer were added to 10 mL of purified water, respectively, and the mixtures were stirred at 300 rpm at room temperature, and then the time required to be visually observed as completely dissolved was measured.

[2] = Solubility of the THGP octamer in purified water or methanol, with pH of the solution; format: physicochemical
Procedure: To 100 mg of the THGP octamer obtained in (1), the process of adding purified water or methanol in small portions and stirring for 30 minutes at room temperature was repeated, and the volume of the solution was measured when the THGP octamer was visually observed to as completely dissolved. The solubility of the THGP octamer (Solute Amount (g)/Total Mass (g)×100%) was calculated from the measured volume. Furthermore, the pH of the solution was measured when the THGP octamer was completely dissolved.

[3] = cited from earlier work
[4] = conventional THGP polymers, stated as known property

Row | time required to completely dissolve ([1]; 100 mg in 10 mL purified water, 300 rpm, room temperature) | dissolving time ([1]; water, 20° C., same conditions as Ge-132) | pH of the aqueous solution (in words) ([2]; dissolved in water) | solubility in methanol (Solute Amount (g)/Total Mass (g)×100%) ([2]; methanol, room temperature) | solubility in water (Solute Amount (g)/Total Mass (g)×100%) ([2]; purified water, room temperature, visually complete dissolution) | solubility (mass (g) of solute in 100 g of saturated solution) in water ([2]; water, 20° C.) | pH of the aqueous solution ([2]; when completely dissolved in water) | time required for the crystals to completely dissolve ([1]; 100 mg in 10 mL purified water (1% aqueous solution), 300 rpm, room temperature) | time required for complete dissolution ([1]; 1% in water, 20° C.) | Substance | solubility in organic solvents, such as methanol [3, 4] | solubility in water [3, 4] | solubility (mass (g) of solute in 100 g of saturated solution) in water ([3]; water, 20° C., known comparator value)
1 | approximately 10 seconds | approximately 10 seconds | neutral | 1.4% | 58.8% | 58.8% | around 7.5 | – | – | 1,7,9,15-tetra(2′-sodium carboxyethylgermanium)-3,5,11,13-tetra-[sodium propanato(2-)-C^3′,O′]-germanium-2,4,6,8,10,12,14,16,17,18,19,20-dodecaoxa-pentacyclo[8.1^1,5.1^7,11.1^9,13.1^3,15.]icosane [THGP octamer] | – | – | –
2 | – | – | – | – | – | – | – | ≥ 30 min | ≥ 30 min | poly-trans-[(2-carboxyethyl)germasesquioxane] [Ge-132] | insoluble | approximately 1% | approximately 1%

Source: patent US11981693B2, “Organogermanium compound” (ASAI Germanium Research Institute Co., Ltd., priority 2019, dated 2024)
